Here are results for 9 compounds from patent US11452674B2, “Non-solvent dental adhesive composition” (KURARAY NORITAKE DENTAL INC., priority 2017, dated 2022).

In brackets after ≈: the same amount, converted by molar mass.

The first series can be described thus: Solubility in water at 25° C. Conditions: 25° C.
With `Cc1cc(C)c(C(=O)P(=O)(O)C(=O)c2c(C)cc(C)cc2C)c(C)c1` [BAPO-ONa, sodium bis(2,4,6-trimethylbenzoyl)phosphine oxide], the “Solubility in water at 25° C.” value worked out at 60 g/L. As to `CC12CCC(C(=O)C1=O)C2(C)C` (stereo not drawn) [CQ, d1-camphorquinone], the “Solubility in water at 25° C.” value is 1.7 g/L (≈ 10.2 mM).

Take `Cc1cc(C)c(C(=O)P(=O)(c2ccccc2)c2ccccc2)c(C)c1` [TMDPO, 2,4,6-trimethylbenzoykliphenylphosphine oxide, reference compound]: the “Solubility in water at 25° C.” value is less than 1 g/L.

Staying with this series, now noted: 25 °C.
A word on the solubility: it is the concentration that dissolves in the medium under given conditions. The low end stands for little dissolved substance, the high end for much dissolved substance. `Cc1cc(C)c(C(=O)P(=O)(O)c2ccccc2)c(C)c1` [Li-TPO, lithium (2,4,6-trimethylbenzoyl)phenylphosphine oxide] came in with a solubility of 45 mg/mL (≈ 156 mM).

The same series, now with this note: 25 °C, Solubility in water at 25° C.
Turning to `Cc1cc(C)c(C(=O)P(=O)(C(=O)c2c(C)cc(C)cc2C)c2ccccc2)c(C)c1` [BAPO, bis(2,4,6-trimethylbenzoyl)phenylphosphine oxide, reference compound], the solubility was less than 1 mg/mL. On the same count and under the same terms, the result for `COCCOCCOCC(=O)Nc1c(C)cc(C)c(C(=O)P(=O)(C(=O)c2c(C)cc(C)c(NC(=O)COCCOCCOC)c2C)c2ccccc2)c1C` [BAPO-A1, reference compound] reads less than 10 mg/mL; that for `Cc1cc(C)c(C(=O)P(=O)(O)C(=O)c2c(C)cc(C)cc2C)c(C)c1` [BAPO-OLi, lithium bis(2,4,6-trimethylbenzoyl)phosphine oxide], 52 mg/mL (≈ 145 mM); that for `Cc1cc(C)c(C(=O)P(=O)(O)c2ccccc2)c(C)c1` [Na-TPO], 28 mg/mL (≈ 97.1 mM).

Regarding `COCCOCCOC(=O)Nc1c(C)cc(C)c(C(=O)P(=O)(c2ccccc2)c2ccccc2)c1C` [TMDPO-A1, reference compound], the solubility was less than 10 mg/mL.
